Measured values reported in US9988400B2 (Genentech, Inc., priority 2013, dated 2018).

These compounds were tested against T1, HEK cells stably transfected with tetracycline inducible hNR1 and hNR2A (Homo sapiens, UniProt Q05586+Q12879) (assay: Assay 1: Cell-Based Assay, cytosolic calcium response to positive allosteric modulators (with 30 μM glycine and 300 nM L-glutamate, EC30)). Details: Table 3; cytosolic calcium response, with 30 μM glycine and 300 nM L-glutamate (EC30); — = no plateau was reached.
T1 construct: expressed in transfected cells; host or cells: HEK cells, stably transfected, tetracycline/doxycycline inducible
Procedure, shortened: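 Cells induced 24 h with 7.5 μg mL^−1 doxycycline plus 500 μM (+)-ketamine, loaded 60 min at 37 °C with calcium dye in Mg-free HBSS (1.8 mM Ca, probenecid, 10 μM (+)-ketamine, pH 7.15). Peak RFU over 5 min after compound addition, scaled to 100 μM L-glutamate (100%) and 0 μM (0%); four-parameter Hill fit for EC50, max % if no plateau.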

T1 sequence (Q12879 23-1464, other chains not shown): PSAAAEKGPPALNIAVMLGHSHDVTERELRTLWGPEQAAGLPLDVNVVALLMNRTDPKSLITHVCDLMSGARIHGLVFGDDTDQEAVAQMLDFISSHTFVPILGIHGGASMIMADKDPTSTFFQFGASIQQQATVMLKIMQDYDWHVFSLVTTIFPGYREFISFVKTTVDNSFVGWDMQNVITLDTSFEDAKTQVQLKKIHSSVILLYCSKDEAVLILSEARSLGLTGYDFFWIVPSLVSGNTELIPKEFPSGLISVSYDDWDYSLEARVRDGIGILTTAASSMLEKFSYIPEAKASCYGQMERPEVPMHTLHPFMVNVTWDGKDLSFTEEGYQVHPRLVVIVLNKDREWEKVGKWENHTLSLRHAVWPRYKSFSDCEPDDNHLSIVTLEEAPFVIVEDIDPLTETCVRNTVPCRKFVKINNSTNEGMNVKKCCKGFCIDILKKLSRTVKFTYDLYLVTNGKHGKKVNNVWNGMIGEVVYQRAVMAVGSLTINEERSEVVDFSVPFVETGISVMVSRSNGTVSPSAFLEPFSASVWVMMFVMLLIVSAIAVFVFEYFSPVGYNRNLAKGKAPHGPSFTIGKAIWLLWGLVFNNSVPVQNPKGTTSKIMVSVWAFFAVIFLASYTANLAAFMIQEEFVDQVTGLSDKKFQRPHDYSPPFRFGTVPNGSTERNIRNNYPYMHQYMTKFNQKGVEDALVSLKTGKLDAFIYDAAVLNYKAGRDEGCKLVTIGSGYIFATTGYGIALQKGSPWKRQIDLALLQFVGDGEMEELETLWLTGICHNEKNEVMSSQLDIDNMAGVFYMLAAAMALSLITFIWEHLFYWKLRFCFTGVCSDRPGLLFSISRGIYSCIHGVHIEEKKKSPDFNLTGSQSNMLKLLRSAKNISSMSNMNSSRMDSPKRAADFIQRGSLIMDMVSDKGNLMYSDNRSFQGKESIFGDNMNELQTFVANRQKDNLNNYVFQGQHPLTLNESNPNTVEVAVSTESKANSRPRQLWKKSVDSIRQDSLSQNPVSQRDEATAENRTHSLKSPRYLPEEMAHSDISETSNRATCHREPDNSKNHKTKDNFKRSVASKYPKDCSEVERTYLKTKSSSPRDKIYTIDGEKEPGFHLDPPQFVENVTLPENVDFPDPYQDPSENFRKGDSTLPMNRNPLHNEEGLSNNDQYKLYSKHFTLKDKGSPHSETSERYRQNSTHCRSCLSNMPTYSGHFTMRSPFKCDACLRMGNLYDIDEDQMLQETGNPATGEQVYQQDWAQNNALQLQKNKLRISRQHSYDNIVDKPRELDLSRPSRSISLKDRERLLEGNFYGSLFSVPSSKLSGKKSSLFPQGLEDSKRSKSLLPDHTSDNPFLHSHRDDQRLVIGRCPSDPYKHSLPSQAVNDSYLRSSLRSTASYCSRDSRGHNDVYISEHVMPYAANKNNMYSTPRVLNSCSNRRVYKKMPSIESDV

Row | Compound | EC50 [nM]
1 | CNC(=O)c1c(C)sc2nc(Cn3nc(C(F)(F)F)cc3Cl)cc(=O)n12 [compound 96, 7-[[5-chloro-3-(trifluoromethyl)pyrazol-1-yl]methyl]-N,2-dimethyl-5-oxo-thiazolo[3,2-a]pyrimidine-3-carboxamide] | 1210
2 | CNC(=O)c1c(C)sc2nc(Cn3nc(Cl)cc3C(F)(F)F)cc(=O)n12 [compound 97, 7-[[3-chloro-5-(trifluoromethyl)pyrazol-1-yl]methyl]-N,2-dimethyl-5-oxo-thiazolo[3,2-a]pyrimidine-3-carboxamide] | 5110
3 | CNC(=O)Cc1c(C)sc2nc(Cn3nc(C(F)(F)F)cc3Cl)cc(=O)n12 [compound 98, 2-[7-[[5-chloro-3-(trifluoromethyl)pyrazol-1-yl]methyl]-2-methyl-5-oxo-thiazolo[3,2-a]pyrimidin-3-yl]-N-methyl-acetamide] | 1570
4 | CNC(=O)Cc1c(C)sc2nc(Cn3nc(Cl)cc3C(F)(F)F)cc(=O)n12 [compound 99, 2-[7-[[3-chloro-5-(trifluoromethyl)pyrazol-1-yl]methyl]-2-methyl-5-oxo-thiazolo[3,2-a]pyrimidin-3-yl]-N-methyl-acetamide] | 3690
5 | Cc1sc2nc(Cn3nc(C(F)(F)F)cc3Cl)cc(=O)n2c1C1CC1C#N (stereo not drawn) [compound 104, 2-[7-[[5-chloro-3-(trifluoromethyl)pyrazol-1-yl]methyl]-2-methyl-5-oxo-thiazolo[3,2-a]pyrimidin-3-yl]cyclopropanecarbonitrile] | 34.1
6 | Cc1sc2nc(Oc3cccc(C#N)c3F)cc(=O)n2c1C1CC1C (stereo not drawn) [compound 107, 2-fluoro-3-[2-methyl-3-(2-methylcyclopropyl)-5-oxo-thiazolo[3,2-a]pyrimidin-7-yl]oxy-benzonitrile] | 994
7 | Cc1sc2nc(Cn3nc(C(F)(F)F)cc3Cl)cc(=O)n2c1C(C)(C)O [compound 108, 7-[[5-chloro-3-(trifluoromethyl)pyrazol-1-yl]methyl]-3-(1-hydroxy-1-methyl-ethyl)-2-methyl-thiazolo[3,2-a]pyrimidin-5-one] | 247
8 | Cc1sc2nc(Cn3nc(Cl)cc3C(F)(F)F)cc(=O)n2c1C(C)(C)O [compound 109, 7-[[3-chloro-5-(trifluoromethyl)pyrazol-1-yl]methyl]-3-(1-hydroxy-1-methyl-ethyl)-2-methyl-thiazolo[3,2-a]pyrimidin-5-one] | 734
9 | Cc1sc2nc(Cn3nc(C(F)(F)F)cc3Cl)cc(=O)n2c1C(C)O (stereo not drawn) [compound 110, 7-[[5-chloro-3-(trifluoromethyl)pyrazol-1-yl]methyl]-3-(1-hydroxyethyl)-2-methyl-thiazolo[3,2-a]pyrimidin-5-one] | 1880
10 | Cc1sc2nc(Cn3nc(Cl)cc3C(F)(F)F)cc(=O)n2c1C(C)O (stereo not drawn) [compound 111, 7-[[3-chloro-5-(trifluoromethyl)pyrazol-1-yl]methyl]-3-(1-hydroxyethyl)-2-methyl-thiazolo[3,2-a]pyrimidin-5-one] | 6000
11 | Cc1sc2nc(Cn3nc(C(F)(F)F)cc3Cl)cc(=O)n2c1C#N [compound 114, 7-[[5-chloro-3-(trifluoromethyl)pyrazol-1-yl]methyl]-2-methyl-5-oxo-thiazolo[3,2-a]pyrimidine-3-carbonitrile] | 1340
12 | Cc1sc2nc(Cn3nc(Cl)cc3C(F)(F)F)cc(=O)n2c1C#N [compound 115, 7-[[3-chloro-5-(trifluoromethyl)pyrazol-1-yl]methyl]-2-methyl-5-oxo-thiazolo[3,2-a]pyrimidine-3-carbonitrile] | 2750
13 | Cc1sc2nc(Cn3nc(C(F)(F)F)cc3Cl)cc(=O)n2c1C1CC1C (stereo not drawn) [compound 118, 7-[[5-chloro-3-(trifluoromethyl)pyrazol-1-yl]methyl]-2-methyl-3-(2-methylcyclopropyl)thiazolo[3,2-a]pyrimidin-5-one] | 169
14 | CC(=O)c1c(C)sc2nc(Cn3nc(C(F)(F)F)cc3Cl)cc(=O)n12 [compound 119, 3-acetyl-7-[[5-chloro-3-(trifluoromethyl)pyrazol-1-yl]methyl]-2-methyl-thiazolo[3,2-a]pyrimidin-5-one] | 325
15 | CC(=O)c1c(C)sc2nc(Cn3nc(Cl)cc3C(F)(F)F)cc(=O)n12 [compound 120, 3-acetyl-7-[[3-chloro-5-(trifluoromethyl)pyrazol-1-yl]methyl]-2-methyl-thiazolo[3,2-a]pyrimidin-5-one] | 995

Second part, the compound after the results:

Row | EC50 [nM] | Compound
16 | 2390 | CC1CC1c1c(Cl)sc2nc(Cc3cccc(C#N)c3F)cc(=O)n12 (stereo not drawn) [compound 85, 3-[[2-chloro-3-(2-methylcyclopropyl)-5-oxo-thiazolo[3,2-a]pyrimidin-7-yl]methyl]-2-fluoro-benzonitrile]
17 | 10500 | Cc1sc2nc(Oc3cccc(C(F)(F)F)c3F)cc(=O)n2c1C1CC1C (stereo not drawn) [compound 86, 7-[2-fluoro-3-(trifluoromethyl)phenoxy]-2-methyl-3-(2-methylcyclopropyl)thiazolo[3,2-a]pyrimidin-5-one]
18 | 42000 | CCNC(=O)c1c(C(C)C)sc2nc(Cc3cccc(C(F)(F)F)c3F)cc(=O)n12 [compound 87, N-ethyl-7-[[2-fluoro-3-(trifluoromethyl)phenyl]methyl]-2-isopropyl-5-oxo-thiazolo[3,2-a]pyrimidine-3-carboxamide]
19 | 3700 | N#Cc1cccc(Cc2cc(=O)n3c(C4CC4C(F)(F)F)c(C(F)(F)F)sc3n2)c1F (stereo not drawn) [compound 88, 2-fluoro-3-[[5-oxo-2-(trifluoromethyl)-3-[2-(trifluoromethyl)cyclopropyl]thiazolo[3,2-a]pyrimidin-7-yl]methyl]benzonitrile]
20 | 9040 | O=c1cc(Cn2nc(C(F)(F)F)cc2Cl)nc2sc3c(n12)CCC3 [compound 89]
21 | 1220 | O=c1cc(Cn2nc(Cl)cc2C(F)(F)F)nc2sc3c(n12)CCC3 [compound 90]
22 | 1030 | CCNC(=O)c1c(OC)sc2nc(Cc3cccc(C(F)(F)F)c3F)cc(=O)n12 [compound 91, N-Ethyl-7-[[2-fluoro-3-(trifluoromethyl)phenyl]methyl]-2-methoxy-5-oxo-thiazolo[3,2-a]pyrimidine-3-carboxamide]
23 | 47100 | O=c1cc(Cc2cccc(C(F)(F)F)c2F)nc2sc3c(n12)C(CO)CC3 (stereo not drawn) [compound 92]
24 | 1830 | CCc1sc2nc(Cc3cccc(C(F)(F)F)c3F)cc(=O)n2c1C(=O)NC [compound 93, 2-ethyl-7-[[2-fluoro-3-(trifluoromethyl)phenyl]methyl]-N-methyl-5-oxo-thiazolo[3,2-a]pyrimidine-3-carboxamide]
25 | 2080 | N#CC1CC1c1c(C(F)(F)F)sc2nc(Cc3cccc(C(F)(F)F)c3F)cc(=O)n12 (stereo not drawn) [compound 94, 2-[7-[[2-fluoro-3-(trifluoromethyl)phenyl]methyl]-5-oxo-2-(trifluoromethyl)thiazolo[3,2-a]pyrimidin-3-yl]cyclopropanecarbonitrile]
26 | 9200 | O=c1cc(Cn2nc(C(F)(F)F)cc2C2CC2)nc2sc3c(n12)C(CO)CC3 (stereo not drawn) [compound 95]
27 | 11600 | Cc1sc2nc(Cc3cccc(C(F)(F)F)c3F)cc(=O)n2c1C1CC1O (stereo not drawn) [compound 100, 7-[[2-fluoro-3-(trifluoromethyl)phenyl]methyl]-3-(2-hydroxycyclopropyl)-2-methyl-thiazolo[3,2-a]pyrimidin-5-one]
28 | 3710 | Cc1sc2nc(Oc3cccc(C(F)(F)F)c3F)cc(=O)n2c1C1CC1C#N (stereo not drawn) [compound 101, 2-[7-[2-fluoro-3-(trifluoromethyl)phenoxy]-2-methyl-5-oxo-thiazolo[3,2-a]pyrimidin-3-yl]cyclopropanecarbonitrile]
29 | 54.7 | Cc1sc2nc(Cn3nc(C(F)(F)F)cc3Cl)cc(=O)n2c1C1CC1CO (stereo not drawn) [compound 102, 7-[[5-chloro-3-(trifluoromethyl)pyrazol-1-yl]methyl]-3-[2-(hydroxymethyl)cyclopropyl]-2-methyl-thiazolo[3,2-a]pyrimidin-5-one]
30 | 251 | Cc1sc2nc(Cn3nc(Cl)cc3C(F)(F)F)cc(=O)n2c1C1CC1CO (stereo not drawn) [compound 103, 7-[[3-chloro-5-(trifluoromethyl)pyrazol-1-yl]methyl]-3-[2-(hydroxymethyl)cyclopropyl]-2-methyl-thiazolo[3,2-a]pyrimidin-5-one]
31 | 3900 | CCNC(=O)c1c(C#N)sc2nc(Cc3cccc(C(F)(F)F)c3F)cc(=O)n12 [compound 105, 2-Cyano-N-ethyl-7-[[2-fluoro-3-(trifluoromethyl)phenyl]methyl]-5-oxo-thiazolo[3,2-a]pyrimidine-3-carboxamide]
32 | 3400 | Cc1sc2nc(Cc3cccc(C(F)(F)F)c3F)cc(=O)n2c1C(=O)NC(C)C [compound 106, 7-[[2-fluoro-3-(trifluoromethyl)phenyl]methyl]-N-isopropyl-2-methyl-5-oxo-thiazolo[3,2-a]pyrimidine-3-carboxamide]
33 | 825 | CCC(C)NC(=O)c1c(C)sc2nc(Cc3cccc(C(F)(F)F)c3F)cc(=O)n12 (stereo not drawn) [compound 112, 7-[[2-fluoro-3-(trifluoromethyl)phenyl]methyl]-2-methyl-5-oxo-N-sec-butyl-thiazolo[3,2-a]pyrimidine-3-carboxamide]
34 | 2370 | Cc1sc2nc(Cc3cccc(C#N)c3F)cc(=O)n2c1N1CCC1 [compound 113, 3-[[3-(azetidin-1-yl)-2-methyl-5-oxo-thiazolo[3,2-a]pyrimidin-7-yl]methyl]-2-fluoro-benzonitrile]
35 | 351 | Cc1sc2nc(Cn3nc(C(F)(F)F)cc3Cl)cc(=O)n2c1C1CC1 [compound 116, 7-[[5-chloro-3-(trifluoromethyl)pyrazol-1-yl]methyl]-3-cyclopropyl-2-methyl-thiazolo[3,2-a]pyrimidin-5-one]
36 | 1030 | Cc1sc2nc(Cn3nc(Cl)cc3C(F)(F)F)cc(=O)n2c1C1CC1 [compound 117, 7-[[3-chloro-5-(trifluoromethyl)pyrazol-1-yl]methyl]-3-cyclopropyl-2-methyl-thiazolo[3,2-a]pyrimidin-5-one]
